In patent publication EP1233748B1, “RETINALDEHYDE COMBINATION WITH ANTIFUNGAL ACTIVITY” (Pierre Fabre Dermo-Cosmetique, priority 1999, dated 2001):

What was measured:
Assay type in all cases: cell-based
[1] = tested on: Malassezia; experiment: Antifungal activity on Malassezia, general statements in the description; settings: alone
[2] = tested on: Malassézia furfur IP 1363-82; Malassezia furfur sauvage; experiment: Determination of the minimal fungistatic concentration (CMF), serial two-fold dilution in Dixon broth in microplates; settings: product alone, 32°C, 48 to 72 h
Protocol: (§1) *souche : Malassézia furfur IP 1363-82 Malassezia furfur sauvage collecté auprès d'un pityriasis versicolor chez un patient hospitalisé au Centre Hospitalier Régional de Toulouse Rangueil (France). *milieu de culture : Dixon modifié (sous forme de bouillon et sous forme gélosée par ajout d'agar) *appareillage : microplaques stériles Nunc ® Nunclon à 96 puits eau distillée stérile tubes à essais stériles étuve à 32°C spectrophotomètre et cuves adaptées billes de verre stériles *produits : les solutions-mères des produits cités ci-dessous ont été préparés comme suit : • Trans rétinal :solution à 1% dans 20% d'éthanol 95 complétée avec de l'eau distillée stérile. • undécanal :solution à 1% dans 10% de Tween 80 complétée par de l'eau distillée stérile.
• une distribution de 100µl de bouillon Dixon est réalisée dans chaque cupule de la microplaque stérile. • une distribution de 100µl des différents produits a lieu dans une cupule, une cupule par produit (on est alors à 50% d'actif). • une série de dilutions sériées au demi est ensuite réalisée contre un témoin stérilité du milieu de culture et un autre témoin de la vigueur de la souche.
L'ensemencement de la microplaque a lieu sous atmosphère stérile après préparation de l'inoculum fongique comme suit : […]

[3] = tested on: Malassézia furfur IP 1363-82; Malassezia furfur sauvage; experiment: Combination study, checkerboard method on microplate, CMF in association and FIC Index; settings: for CMF % Associés: product in association (Rétinal + Ald. C11), checkerboard, 32°C
Protocol: as §1
Des solutions-mères comme décrites précédemment égales à deux fois la CMF sont réalisées. La méthode de l'échiquier rapportée sur microplaque est utilisée pour croiser les séries de dilution au demi de chaque actif. Après ensemencement et incubation à 32°C, on procède à la lecture des CMF. Un repérage des CMF donnant lieu à des synergies peut alors se faire. Nous obtenons après calcul des FIC Index le tableau suivant :
La synergie peut être mise en évidence par le calcul des Index FIC (Fractional Inhibitory Concentration) des produits. Pour cela, on mesure la valeur de la CMF (ou Concentration Minimale Fongistatique) des principes actifs à tester vis-à-vis d'un type de germe.
Le FIC d'un produit A est défini comme : FICA =(CMF du produit A en association)/(CMF du produit A seul) [formula]
L'association de deux antifongiques A et B est synergique si la somme FIC des rapports (FICA et FICB) est inférieure ou égale à 0,75.
Plus la valeur FIC est faible, plus la synergie est importante.
On considère qu'il y a simple additivité pour des valeurs de FIC comprises entre 0,75 et 1,1 et indifférente dans l'intervalle compris entre 1,1 et 2; au-delà, l'association est notée antagoniste.

Row | Structure (SMILES) | action sur les levures telles Malassezia [1] | CMF % Seuls [2] | CMF % Associés [3] | FIC Index ([3]; sum of FIC for the association Rétinal + Ald. C11, synergy if <= 0,75)
1 | CC1=C(/C=C/C(C)=C/C=C/C(C)=C/C=O)C(C)(C)CCC1 [Rétinal, Trans rétinal] | ne possède pas d'action notoire | 0,25 – 0,5% | 0,06 – 0,25% | 0,51 à 0,75
2 | CCCCCCCCCCC=O [Ald. C11, undécanal] | – | – | 0,0001 – 0,03% | –
